# Test results as given in article PMC12624727, “Benzodeazaoxaflavin Sirtuin Inhibitors Inhibit Schistosoma mansoni Sirt2 and Cause Phenotypic Changes and Lethality in Schistosomula and Adult Worm Stages” (ACS Infectious Diseases, 2025).
# Key:
# SmSirt2 = SmSirt2 (Schistosoma mansoni, UniProt T1VXA1); assay: In vitro SmSirt2 inhibition assay, homogeneous fluorescence-based, ZMAL substrate; assay type: biochemical
# Procedure: We first improved the synthetic method to obtain most of the BDFs analogues 1–12 (Figure ), and we tested them against recombinant SmSirt2 using a homogeneous, fluorescent-based in vitro assay with (Z)-(Ac)-Lys-7-amino-4-methylcoumarin (ZMAL) as the substrate.
# The BDF4 compounds 1–12 were tested for their inhibitory activity against SmSirt2 using a fluorescence-based assay with ZMAL as the substrate. Their activity against hSirt2 has been previously reported. ,
# For the screening of compounds 1–12, a homogeneous fluorescence-based assay previously described by some of us was used to determine SmSirt2 activity.
# [1] = tested on: S. mansoni newly transformed schistosomula (NTS), Liberian strain; assay: NTS (Liberian strain) in vitro viability assay; assay type: cell-based, Schistosoma mansoni; conditions: for percentage of reduction of NTS viability, 72 h: SD in brackets; for IC50: 72 h, Liberian strain
# [2] = tested on: adult S. mansoni (Liberian strain) worm pairs; assay: Adult worm (Liberian strain) in vitro viability assay; assay type: cell-based, Schistosoma mansoni; conditions: for adult worms' percentage of viability reduction, 72 h: SD in brackets; for IC50: Schistosoma mansoni, 72 h, Liberian strain
# [3] = tested on: S. mansoni (Puerto Rican) worm pairs; assay: Worm pairing of adult worm pairs (Puerto Rican strain); assay type: cell-based, Schistosoma mansoni; conditions: % of DMSO control
# [4] = tested on: S. mansoni (Puerto Rican) worm pairs; assay: Egg laying by adult worm pairs (Puerto Rican strain); assay type: cell-based, Schistosoma mansoni; conditions: % of DMSO control
# [5] = tested on: histone H3 / H4 acetylation in S. mansoni (Puerto Rican strain) worm pairs; assay: Western blot of histone and lysine acetylation in worm extracts; assay type: cell-based, Schistosoma mansoni; conditions: 10 μM, 48 h; histone-enriched fraction
# [6] = tested on: adult S. mansoni (Puerto Rican strain) worm pairs; conditions: Puerto Rican strain; for lethality of adult worm pairs: 20 μM, by 72 h
# hSirt2 = conditions: ref footnote b (reference number not given); cited from earlier work
# [7] = tested on: adult S. mansoni (Puerto Rican strain) worm pairs; assay: microbe, parasite or virus in culture; conditions: Schistosoma mansoni, 24 h, read-out: mortality in adult worm pairs
# [8] = MTT viability assay on BJ fibroblasts; conditions: human
# [9] = tested on: cytochrome c release in S. mansoni (Puerto Rican strain) worms; assay: Western blot of cytosolic cytochrome c in worm extracts; assay type: cell-based, Schistosoma mansoni; conditions: 25 μM, 48 h (legend of Figure 5)
# Procedure: To determine if the Sirt2 inhibitors trigger apoptosis through the cytochrome c pathway, we examined cytochrome c release from mitochondria.
# 5 Effects of selected Sirt2 inhibitors on cytosolic cytochrome c expression. Representative immunoblots of cytosolic protein fractions extracted from S. mansoni adult worm pairs are shown. The worms were treated with the indicated Sirt2 inhibitors (10 μM) for 48 h. DMSO (vehicle), TSA (1 μM, 24 h), a HDAC pan-inhibitor, and salermide (Sal 25 μM, 48 h), a Sirt1/Sirt2 inhibitor, were used as controls. The α-tubulin signal was used for normalization. Quantitation of cytochrome c relative to the vehicle-treated sample is shown.
# Ten pairs of adult parasites were treated with selected Sirt inhibitors for either 24 or 48 h at partially lethal and sublethal concentrations. The concentrations of compounds were chosen based on the viability curve. Positive controls in the experiments included TSA, a pan-HDAC inhibitor, and salermide, a hSirt1/2 inhibitor, while DMSO (vehicle) served as negative control. Parasites were lysed in a 0.5% Triton PBS buffer by strokes, and the lysates were then centrifuged to collect the soluble fractions (cytosol). The insoluble fractions were extracted with 0.25 N HCl at +4 °C for 18 h, followed by neutralization with 1/10 volume of 2 N NaOH. Samples were analyzed using 15% SDS-PAGE and Western blotting. […]
# schistosomula = tested on: schistosomula; parameters: method as in not given; conditions: 48 h of treatment, 10–20 μM; ref not given; cited from earlier work
# in vitro = conditions: human
# Chain of SmSirt2 (T1VXA1 entry or part of it): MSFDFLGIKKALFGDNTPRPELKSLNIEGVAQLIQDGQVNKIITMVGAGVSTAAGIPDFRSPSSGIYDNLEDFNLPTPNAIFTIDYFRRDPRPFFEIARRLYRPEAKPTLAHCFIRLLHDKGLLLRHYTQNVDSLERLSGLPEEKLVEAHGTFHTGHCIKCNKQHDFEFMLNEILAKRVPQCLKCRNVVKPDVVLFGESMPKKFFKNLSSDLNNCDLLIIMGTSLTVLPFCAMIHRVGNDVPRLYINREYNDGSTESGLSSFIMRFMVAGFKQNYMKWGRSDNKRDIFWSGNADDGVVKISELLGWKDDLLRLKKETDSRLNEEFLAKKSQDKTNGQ
SMILES,"percentage of reduction of NTS viability, 72 h ([1]; 0.1 μM)","percentage of reduction of NTS viability, 72 h ([1]; 1 μM)","percentage of reduction of NTS viability, 72 h ([1]; 10 μM)","percentage of reduction of NTS viability, 72 h ([1]; 20 μM)",IC50 [1] [nM],IC50 ([1]; Schistosoma mansoni) [nM],"adult worms' percentage of viability reduction, 72 h ([2]; 20 μM)",IC50 [2] [nM],"% worm pairing ([3]; 1 μM, 24 h, single experiment) [%]","% worm pairing ([3]; 1 μM, 48 h, single experiment) [%]","% worm pairing ([3]; 1 μM, 72 h, single experiment) [%]","% worm pairing ([3]; 10 μM, 24 h, SD in brackets)","% worm pairing ([3]; 10 μM, 48 h, SD in brackets)","% worm pairing ([3]; 10 μM, 72 h, SD in brackets)","% worm pairing ([3]; 20 μM, 24 h, SD in brackets)","% worm pairing ([3]; 20 μM, 48 h, SD in brackets)","% worm pairing ([3]; 20 μM, 72 h, SD in brackets)","% egg laying ([4]; 1 μM, 24 h, single experiment) [%]","% egg laying ([4]; 1 μM, 48 h, single experiment) [%]","% egg laying ([4]; 1 μM, 72 h, single experiment) [%]",further results
"O=c1nc2oc3ccc4ccccc4c3cc-2c(=O)n1C1CCCCC1 [Compound 7, 10-Cyclohexyl-9H-benzo[5,6]chromeno[2,3-d]pyrimidine-9,11(10H)-dione]",43.8 (2.1) %,67.7 (0) %,100 (0) %,100 (0) %,210,~200,100 (0) %,1240,100,100,100,100 (0) %,100 (0) %,100 (0) %,0 (0) %,0 (0) %,6 (11) %,75,66,75,"inhibition at 50 µM (SmSirt2): 24.6%; adult worms' percentage of viability reduction, 72 h ([2]; 1 μM): 23.9 (0) %; % egg laying ([4]; 10 μM, 24 h, SD in brackets): 32 (4) %; % egg laying ([4]; 10 μM, 48 h, SD in brackets): 46 (6) %; % egg laying ([4]; 10 μM, 72 h, SD in brackets): 44 (10) %; % egg laying ([4]; 20 μM, 24 h, SD in brackets): 14 (12) %; % egg laying ([4]; 20 μM, 48 h, SD in brackets): 9 (8) %; acetylation of histone H3 (pan-acetylation) [5]: increase in acetylation of histone H3; acetylation of histone H4 (pan-acetylation) [5]: but not histone H4; lethality of adult worm pairs [6]: complete lethality; IC50 (hSirt2): 58500 ± 2900 nM; mortality at 20 µM [7]: 70 to 80%; IC50 at 72 h [8]: 60000 nM"
CC(C(=O)Nc1cccc(/N=C/c2c(O)ccc3ccccc23)c1)c1ccccc1 (stereo not shown) [salermide],–,–,–,–,–,–,–,–,–,–,–,–,–,–,–,–,–,–,–,–,"cytosolic cytochrome c level [9]: increased levels of cytochrome c; effect on adult worm viability ([6]; after 72 h, same conditions): did not affect adult worm viability; DNA fragmentation in schistosomula (TUNEL assay) (schistosomula): cause DNA fragmentation"
"O=c1nc2oc3ccc4ccccc4c3cc-2c(=O)n1Cc1ccccc1 [Compound 9, 10-Benzyl-9H-benzo[5,6]chromeno[2,3-d]pyrimidine-9,11(10H)-dione]",36 (2) %,100 (0) %,100 (0) %,100 (0) %,110,~100,61.2 (5.6) %,< 1000,100,100,100,80 (20) %,93 (11) %,100 (0) %,6 (11) %,20 (30) %,20 (30) %,98,98,126,"IC50 (SmSirt2; read-out: IC50 SmSirt2, ZMAL substrate): 7300 ± 500 nM; % egg laying ([4]; 10 μM, 24 h, SD in brackets): 72 (74) %; % egg laying ([4]; 10 μM, 48 h, SD in brackets): 71 (36) %; % egg laying ([4]; 10 μM, 72 h, SD in brackets): 67 (28) %; % egg laying ([4]; 20 μM, 24 h, SD in brackets): 11 (7) %; % egg laying ([4]; 20 μM, 48 h, SD in brackets): 8 (5) %; % egg laying ([4]; 20 μM, 72 h, SD in brackets): 7 (6) %; acetylation of histone H3 (pan-acetylation) [5]: increase in acetylation of histone H3; acetylation of histone H4 (pan-acetylation) [5]: but not histone H4; lethality of adult worm pairs [6]: complete lethality; IC50 (hSirt2): 15900 ± 600 nM; mortality at 20 µM [7]: 70 to 80%; IC50 at 72 h [8]: 50600 nM"
"CC(C)=CCC[C@]1(C)C=Cc2c(O)c3c(c(CC=C(C)C)c2O1)O[C@]12C(=C[C@@H]4C[C@H]1C(C)(C)O[C@@]2(C/C=C(/C)C(=O)O)C4=O)C3=O [GA, gambogic acid]",–,–,–,–,–,–,–,–,–,–,–,–,–,–,–,–,–,–,–,–,IC50 at 72 h (in vitro): 340 nM
